Results reported in patent US20070060615A1, “Method of Modulating Apoptosis Through Modulation of E2F1” (University of South Florida, priority 2003, published 2007).

Assays:
Mcl-1 mRNA = assay: Northern blot of endogenous Mcl-1 mRNA in wild-type NIH3T3 cells; type: cell-based, murine; conditions: wild-type 3T3 cells, total RNA, FIG. 5B
Experimental: (§1) Cell lysates were normalized for total protein content (50 μg) and subjected to SDS-PAGE as described previously. Primary antibodies used in these studies consisted of E2F1 (SantaCruz Biotechnology; SC-251), Mcl-1 (Santa Cruz; SC-819), Rb (PharMingen; 14031A), Flag (Sigma; F-3615) and β-actin (Sigma; A5441). Detection of proteins was accomplished using horseradish-peroxidase-conjugated secondary antibodies and enhanced chemiluminescence (ECL) purchased through Amersham. Northern blots were performed as described previously.

Mcl-1 [1] = assay: Western blot of Mcl-1 in H1299 cells; type: cell-based, human
Experimental: (§2) The H1299 non-small cell lung cancer line are grown in DMEM supplemented with 2 mM L-glutamine (Life Technologies, Inc.), 5% fetal bovine serum (Hyclone), and 1% penicillin/streptomycin (Life Technologies, Inc.). NIH3T3 cells constitutively expressing human Mcl-1 were created by transfecting cells with pcDNA-3-Mcl-1 and selecting for transformants in the presence of 400 μg/ml G418. Mouse embryo fibroblasts from E2F1-null animals were grown in DMEM with 15% fetal bovine serum and 1% penicillin/streptomycin. […] The drug was diluted directly into the medium to indicated concentrations followed by incubation at 37° C. Untreated cells and cells treated with DMSO alone behaved identically. Cell lysates were normalized for total protein content (50 μg) and subjected to SDS-PAGE as described previously. Primary antibodies used in these studies consisted of E2F1 (SantaCruz Biotechnology; SC-251), Mcl-1 (Santa Cruz; SC-819), Rb (PharMingen; 14031A), Flag (Sigma; F-3615) and β-actin (Sigma; A5441). Detection of proteins was accomplished using horseradish-peroxidase-conjugated secondary antibodies and enhanced chemiluminescence (ECL) purchased through Amersham. Northern blots were performed as described previously.

Bok = assay: Western blot of Bok in H1299 cells; type: cell-based, human; conditions: H1299, 200 nM
[2] = system: H1299 lung carcinoma cells; assay: Apoptosis by Apo-BrdUrd incorporation in H1299 cells; type: cell-based, human
Experimental: (§3) The H1299 non-small cell lung cancer line are grown in DMEM supplemented with 2 mM L-glutamine (Life Technologies, Inc.), 5% fetal bovine serum (Hyclone), and 1% penicillin/streptomycin (Life Technologies, Inc.). NIH3T3 cells constitutively expressing human Mcl-1 were created by transfecting cells with pcDNA-3-Mcl-1 and selecting for transformants in the presence of 400 μg/ml G418. Mouse embryo fibroblasts from E2F1-null animals were grown in DMEM with 15% fetal bovine serum and 1% penicillin/streptomycin. […] The drug was diluted directly into the medium to indicated concentrations followed by incubation at 37° C. Untreated cells and cells treated with DMSO alone behaved identically.
(§4) Apoptosis was assayed using PharMingen “APO-BrdU” kit without modification. After treatment with flavopiridol, cells were trypsinized and resuspended in PBS. Cells were counted and 1-2×10^6 cells were fixed in 1% paraformaldehyde in PBS on ice, pelleted, washed twice in PBS, and fixed with ice-cold 70% ethanol overnight. The next day, cells were pelleted, resuspended, and washed with wash buffer. Pelleted cells were resuspended with reaction buffer, TdT enzyme, and bromo-dUTP for 1 hour at 37° C. Cells were subsequently rinsed with 1.0 ml of PBS and resuspended with fluorescein-labeled anti-BrdUrd in the dark for 30 min at room temperature. Propidium iodide and RNase were added, and the cells were incubated for 30 min. One×10^4 cells per experimental condition were analyzed for fluorescence on a Becton-Dickinson FACScan using Cell Quest software.

human Mcl-1 = assay: Western blot of Mcl-1 in NIH3T3 cells stably expressing human Mcl-1; type: cell-based, murine; conditions: 200 nM, up to 72 hours, FIG. 5A
Experimental: as §2

[3] = system: H1299 cells lacking E2F1 protein; assay: Apoptosis by Apo-BrdUrd in E2F1 knockdown H1299 cells; type: cell-based, human; conditions: 200 nM, 48 and 72 h, FIG. 6B
Experimental: (§5) To generate E2F1 knockdown cell lines H1299 cells were transfected by the calcium phosphate method either with empty BS/U6 RNAi vector or with BS/U6-E2F1 RNAi vector together with pcDNA-3, which encodes a neomycin-selectable marker. Forty-eight hours after transfection, cells were split and cultured in medium containing 400 μg/ml G418. Colonies that emerged from G418 selection were propagated and screened for E2F1 expression by Western blot. Several lines were isolated that had reduced E2F1 expression; the most efficient knockdown cell line, H1299-E2F1RNAi-16, was further characterized. A matching H1299-pBS/U6 cell line was generated in the same way.
(§6) Apoptosis was assayed using PharMingen “APO-BrdU” kit without modification. After treatment with flavopiridol, cells were trypsinized and resuspended in PBS. Cells were counted and 1-2×10^6 cells were fixed in 1% paraformaldehyde in PBS on ice, pelleted, washed twice in PBS, and fixed with ice-cold 70% ethanol overnight. The next day, cells were pelleted, resuspended, and washed with wash buffer. Pelleted cells were resuspended with reaction buffer, TdT enzyme, and bromo-dUTP for 1 hour at 37° C. […] One×10^4 cells per experimental condition were analyzed for fluorescence on a Becton-Dickinson FACScan using Cell Quest software.

Bcl-2 = assay: Western blot of Bcl-2 in H1299 cells; type: cell-based, human; conditions: H1299, 200 nM
E2F1 = assay: Western blot of E2F1 in H1299 cells; type: cell-based, human
Experimental: as §2

wild-type NIH3T3 cells = assay: Apoptosis by Apo-BrdUrd in wild-type NIH3T3 cells; type: cell-based, murine; conditions: 200 nM, 48 and 72 hours, FIG. 5C
Experimental: as §4

[4] = system: H1299-Mcl-1-11 and H1299-Mcl-1-13 cells; assay: Apoptosis by Apo-BrdUrd in H1299 cells stably expressing human Mcl-1; type: cell-based; conditions: 200 nM, 48, 72 and 96 hours, FIG. 4B
Experimental: H1299 cells lines, constitutively expressing human Mcl-1 under control of the CMV promoter, were obtained by transfecting cells with pcDNA3 or pcDNA3-Mcl-1 and selecting for transformants by growth in 400 μg/ml G418. G418-resistant lines were screened for expression of human Mcl-1. Two Mcl-1-positive cell lines emerged and were characterized. A matching G418-resistant H1299-pcDNA3 cell line was generated in the same way. Apoptosis was assayed using PharMingen “APO-BrdU” kit without modification. After treatment with flavopiridol, cells were trypsinized and resuspended in PBS. Cells were counted and 1-2×10^6 cells were fixed in 1% paraformaldehyde in PBS on ice, pelleted, washed twice in PBS, and fixed with ice-cold 70% ethanol overnight. The next day, cells were pelleted, resuspended, and washed with wash buffer. Pelleted cells were resuspended with reaction buffer, TdT enzyme, and bromo-dUTP for 1 hour at 37° C. Cells were subsequently rinsed with 1.0 ml of PBS and resuspended with fluorescein-labeled anti-BrdUrd in the dark for 30 min at room temperature. Propidium iodide and RNase were added, and the cells were incubated for 30 min. One×10^4 cells per experimental condition were analyzed for fluorescence on a Becton-Dickinson FACScan using Cell Quest software.

Rb = Rb Western blot (Rb phosphorylation) in H1299 cells; type: cell-based, human; conditions: H1299, 200 nM, time course FIG. 3A
Experimental: as §1

Mcl-1 [5] = assay: Western blot of Mcl-1 in E2F1 knockdown H1299 cells; type: cell-based, human; conditions: E2F1 knockdown H1299, 8 hours, FIG. 6A
Experimental: as §5, §1

[6] = system: E2F1 null mouse embryo fibroblasts; assay: Apoptosis by Apo-BrdUrd in E2F1 null mouse embryo fibroblasts; type: cell-based; conditions: 200 nM, 72 hours, FIG. 6C
Experimental: as §3, §6

[7] = system: NIH3T3 cells stably expressing human Mcl-1; assay: Apoptosis by Apo-BrdUrd in NIH3T3 cells stably expressing Mcl-1; type: cell-based, murine; conditions: 200 nM, 72 hours, FIG. 5C
Experimental: as §3, §6

[8] = H1299, 200 nM, 12 hours, extended time course FIG. 3A
[9] = H1299, increasing doses, 48 hours, FIG. 1A

SMILES: CN1CC[C@H](c2c(O)cc(O)c3c(=O)cc(-c4ccccc4Cl)oc23)[C@H](O)C1 [flavopiridol]
- Time within which endogenous Mcl-1 levels are reduced (Mcl-1 mRNA): ≤ 6 h
- Mcl-1 protein levels at 200 nM and higher doses (Mcl-1 [1]; H1299, 200 nM and higher, 48 hours, FIG. 1A): undetectable
- Mcl-1 levels after 12 hours (Mcl-1 [1]; [8]): undetectable
- Mcl-1 levels by 36 hours (Mcl-1 [1]; H1299, 200 nM, 36 hours, FIG. 3A): Low levels of Mcl-1 were apparent
- Time after which Mcl-1 levels began to fall (Mcl-1 [1]; H1299, 200 nM, FIG. 2A): 3 h
- Time after which Mcl-1 levels were maximally reduced (Mcl-1 [1]; H1299, 200 nM, FIG. 2A): 12 h
- Mcl-1 protein levels, dose response (Mcl-1 [1]; [9]): significantly reduced starting at the 100-nM dose
- Bok levels (Bok): No changes
- Apoptosis after 48 and 72 hours ([2]; H1299, 200 nM, 48 and 72 hours, FIG. 3B): larger degrees of apoptosis
- Apoptosis after 24 hours ([2]; H1299, 200 nM, 24 hours, FIG. 3B): Minimal levels of apoptosis
- Apoptosis at 36 hours ([2]; H1299, 200 nM, 36 hours, FIG. 3B): apoptosis was evident
- Apoptosis at times <18 hours ([2]; H1299, 200 nM, <18 hours, FIG. 2B): minimal effect on apoptosis
- Apoptosis (Apo-BrdUrd incorporation), dose response ([2]; H1299, 48 hours of treatment, FIG. 1B): minimal elevations in apoptosis, as measured by Apo-BrdUrd incorporation, are seen until a dose of 200 nM was reached
- Human Mcl-1 protein levels in stably transfected NIH3T3 cells (human Mcl-1): no changes are seen in the levels of Mcl-1
- Apoptosis in H1299 cells lacking E2F1 compared with empty RNAi vector cells [3]: less sensitive to flavopiridol-induced cell death
- Bcl-2 levels (Bcl-2): No changes
- E2F1 levels after 12 hours (E2F1; [8]): E2F1 levels had risen
- E2F1 levels after 72 hours (E2F1; H1299, 200 nM, 72 hours, FIG. 3A): E2F1 levels fell
- Time after which E2F1 levels reached a plateau (E2F1; H1299, 200 nM, FIG. 2A): 9 h
- Time after which increases in E2F1 protein are apparent (E2F1; H1299, 200 nM, FIG. 2A): 3 h
- E2F1 protein levels, dose response (E2F1; [9]): markedly elevated starting at the 100-nM dose
- Apoptosis in wild-type NIH3T3 (pcDNA3 alone) (wild-type NIH3T3 cells): undergoes apoptosis starting after 48 hours but is more pronounced after 72 hours of treatment
- Apoptosis in stably transfected Mcl-1 clones compared with control cells [4]: resistant to apoptosis induced by flavopiridol
- Rb phosphorylation (Rb): no changes in Rb phosphorylation
- Mcl-1 protein levels in H1299 cells lacking E2F1 (Mcl-1 [5]): decreased in a manner identical to that of the control cells
- Apoptosis in mouse embryo fibroblast lines lacking E2F1 compared with wild-type littermates [6]: less sensitive to flavopiridol-induced cell death
- Apoptosis in NIH3T3 stably expressing Mcl-1 [7]: minimal increases in apoptosis
